In test [1] the target is T1, Sphingosine 1-phosphate receptor 4 (Homo sapiens, UniProt O95977).
T1 sequence (O95977 whole entry): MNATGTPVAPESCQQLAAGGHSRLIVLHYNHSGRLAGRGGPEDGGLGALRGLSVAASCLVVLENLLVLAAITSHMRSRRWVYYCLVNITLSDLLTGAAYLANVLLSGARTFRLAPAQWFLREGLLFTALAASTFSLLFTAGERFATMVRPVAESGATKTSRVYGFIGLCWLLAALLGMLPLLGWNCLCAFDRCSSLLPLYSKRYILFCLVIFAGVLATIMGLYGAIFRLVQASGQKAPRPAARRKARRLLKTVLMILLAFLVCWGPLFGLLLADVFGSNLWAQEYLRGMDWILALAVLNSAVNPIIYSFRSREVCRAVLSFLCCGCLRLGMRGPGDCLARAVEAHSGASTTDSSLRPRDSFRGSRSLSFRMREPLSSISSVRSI
The test is described as follows: Agonist activity at S1P4 receptor in human U2OS cells expressing VP16-GAL4 transcriptional factor and beta-arrestin/TEV protease fusion protein assessed as migration of VP16-GAL4 into nucleus by FRET based beta lactamase reporter gene assay. The format is functional, cell-based. (In general: A reporter such as luciferase makes a cellular process visible.)

Test [2] deals with T2, Sphingosine 1-phosphate receptor 5 (Homo sapiens, UniProt Q9H228). The test is described as follows: Agonist activity at S1P5 receptor at 25 uM. Format: functional.
T2 sequence (Q9H228 whole entry): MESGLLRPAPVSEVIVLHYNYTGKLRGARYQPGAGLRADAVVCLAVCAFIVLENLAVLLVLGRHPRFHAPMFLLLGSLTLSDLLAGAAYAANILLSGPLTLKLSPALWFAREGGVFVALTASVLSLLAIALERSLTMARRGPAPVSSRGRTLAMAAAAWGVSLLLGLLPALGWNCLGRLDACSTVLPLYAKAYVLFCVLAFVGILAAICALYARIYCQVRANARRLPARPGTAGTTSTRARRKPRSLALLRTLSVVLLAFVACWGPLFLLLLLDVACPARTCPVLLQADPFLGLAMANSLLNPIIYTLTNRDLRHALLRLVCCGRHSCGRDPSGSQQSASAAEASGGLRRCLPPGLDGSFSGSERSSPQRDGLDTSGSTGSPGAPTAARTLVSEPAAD
For test [3], the target named is Sphingosine 1-phosphate receptor 2 (Homo sapiens, UniProt O95136). The test can be described thus: Agonist activity at S1P2 receptor at 25 uM. Format: functional.
Sequence of Sphingosine 1-phosphate receptor 2 (O95136 whole entry): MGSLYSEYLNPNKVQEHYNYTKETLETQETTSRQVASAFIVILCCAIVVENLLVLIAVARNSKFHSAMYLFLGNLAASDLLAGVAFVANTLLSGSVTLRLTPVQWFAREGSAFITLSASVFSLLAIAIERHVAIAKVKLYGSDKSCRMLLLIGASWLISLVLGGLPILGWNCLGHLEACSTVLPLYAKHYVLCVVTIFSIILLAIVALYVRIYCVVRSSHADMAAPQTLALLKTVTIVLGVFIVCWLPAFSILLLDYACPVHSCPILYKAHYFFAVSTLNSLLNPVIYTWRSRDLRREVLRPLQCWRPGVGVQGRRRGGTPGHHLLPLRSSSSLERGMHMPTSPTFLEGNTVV
For test [4], the target named is T3, Sphingosine 1-phosphate receptor 1 (Homo sapiens, UniProt P21453). The test can be described thus: Agonist activity at S1P1 receptor at 25 uM. Format: functional.
T3 sequence (P21453 whole entry): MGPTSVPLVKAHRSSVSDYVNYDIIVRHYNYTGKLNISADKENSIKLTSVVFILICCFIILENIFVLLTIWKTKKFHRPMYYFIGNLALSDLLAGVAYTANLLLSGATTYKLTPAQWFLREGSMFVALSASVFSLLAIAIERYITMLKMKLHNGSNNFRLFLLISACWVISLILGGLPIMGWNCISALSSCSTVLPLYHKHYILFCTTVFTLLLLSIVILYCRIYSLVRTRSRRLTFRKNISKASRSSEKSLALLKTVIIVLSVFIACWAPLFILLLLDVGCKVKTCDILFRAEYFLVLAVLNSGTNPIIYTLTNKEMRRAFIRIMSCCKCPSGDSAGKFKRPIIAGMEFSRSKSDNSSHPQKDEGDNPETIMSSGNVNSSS
In test [5] the target is Sphingosine 1-phosphate receptor 3 (Homo sapiens) (UniProt Q99500). The test is described as follows: Agonist activity at S1P3 receptor at 25 uM. Format: functional.
Sequence of Sphingosine 1-phosphate receptor 3 (Homo sapiens) (Q99500 whole entry): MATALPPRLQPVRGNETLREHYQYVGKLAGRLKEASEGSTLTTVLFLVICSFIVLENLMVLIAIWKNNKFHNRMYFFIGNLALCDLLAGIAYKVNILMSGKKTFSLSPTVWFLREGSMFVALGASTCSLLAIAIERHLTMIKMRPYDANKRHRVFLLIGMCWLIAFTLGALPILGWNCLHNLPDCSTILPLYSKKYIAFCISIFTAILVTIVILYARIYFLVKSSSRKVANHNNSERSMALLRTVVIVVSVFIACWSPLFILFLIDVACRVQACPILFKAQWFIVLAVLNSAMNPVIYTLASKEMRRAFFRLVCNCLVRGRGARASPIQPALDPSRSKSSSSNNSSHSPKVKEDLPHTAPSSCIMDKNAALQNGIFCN
For test [6], the target named is T4, Sphingosine 1-phosphate receptor 4 (Homo sapiens) (UniProt O95977).
T4 sequence (whole entry): T1 sequence (O95977 whole entry)
The test is described as follows: Agonist activity at S1P4 receptor in human U2OS cells expressing VP16-GAL4 transcriptional factor and beta-arrestin/TEV protease fusion protein assessed as migration of VP16-GAL4 into nucleus at 25 uM by FRET based beta lactamase reporter gene assay. The format is functional, cell-based.

The target in test [7] is T3, Sphingosine 1-phosphate receptor 1. The test can be described thus: Agonist activity at S1P1 receptor. Format: functional.
For test [8], the target named is T2, Sphingosine 1-phosphate receptor 5. The test can be described thus: Agonist activity at S1P5 receptor. Format: functional.
The target of test [9] is T4, Sphingosine 1-phosphate receptor 4 (Homo sapiens). The test is described as follows: Agonist activity at S1P4 receptor relative to control. The format is functional.
Test [10] deals with UOS2. The test can be described thus: Selectivity ratio of EC50 for S1P5 receptor to EC50 for S1P4 receptor in human […] cells. Format: cell-based.
Test [11] has as its target T2, Sphingosine 1-phosphate receptor 5. The test is described as follows: Agonist activity at S1P5 receptor relative to control. The format is functional.
Test [12] relates to UOS2. The test can be described thus: Selectivity ratio of EC50 for S1P1 receptor to EC50 for S1P4 receptor in human […] cells. The format is cell-based.
Test [13] deals with T3, Sphingosine 1-phosphate receptor 1. The test is described as follows: Agonist activity at S1P1 receptor at 8.3 uM. The format is functional.
Test [14] has as its target T2, Sphingosine 1-phosphate receptor 5. The test is described as follows: Agonist activity at S1P5 receptor at 8.3 uM. The format is functional.

Active and inactive are the calls of the source. No cut-off for these calls is given here.

For `C/N=C1/NC(=O)/C(=C/c2cc(C)n(-c3ccccc3F)c2C)S1`, the EC50 in test [1] was found to be 3600 nM.
Consider `CC/N=C1\S/C(=C\c2cc(C)n(-c3ccccc3F)c2C)C(=O)N1CC`, for which the result in test [2], in test [3], in test [4] and in test [5] was inactive. Also, the EC50 in [1] was found to be 250 nM.
Consider `Cc1cc(/C=C2\S/C(=N\c3ccccc3)NC2=O)c(C)n1-c1ccccc1F`, for which the outcome in [6] was inactive.
In the case of `C/N=C1\S/C(=C\c2cc(C)n(-c3ccc(F)cc3F)c2C)C(=O)N1CCOC`, the EC50 in [1] stood at 1700 nM.
`C/N=C1\S/C(=C\c2cc(C)n(Cc3ccccc3F)c2C)C(=O)N1C`: the Efficacy in test [3] was 60%; in test [5], 25%. In addition, the figures for the EC50 in [1], in [7] and in test [8] were 72 nM, 250 nM and 51 nM, respectively.
As for `CCC/N=C1\S/C(=C\c2cc(C)n(-c3ccccc3F)c2C)C(=O)N1CCC`, the outcome in test [6] was inactive.
With `CC/N=C1\NC(=O)/C(=C/c2cc(C)n(-c3ccccc3F)c2C)S1`, in test [6], the result was inactive.
With `CC/N=C1\S/C(=C\c2cc(C)n(-c3ccccc3)c2C)C(=O)N1CC`, the outcome in [3] and in [5] was inactive. The EC50 came to 602 nM in [1], 68 nM in [7] and 237 nM in [8].
As to `C/N=C1\S/C(=C\c2cc(C)n(Cc3c(F)cccc3F)c2C)C(=O)N1C`, the figures for the Efficacy in [3] and in test [5] were 120% and 70%, respectively. The EC50 in test [1] was 92 nM; in [7], 34 nM; in [8], 34 nM.
As to `C/N=C1\S/C(=C\c2cc(C)n(-c3ccccn3)c2C)C(=O)N1C`, in test [1], the EC50 was 1800 nM.
Take `C/N=C1\S/C(=C\c2cc(C)n(-c3cccc4ccccc34)c2C)C(=O)N1C`: the outcome in test [6] was inactive.
The same measure, in the same setting: under `COCC/N=C1\S/C(=C\c2cc(C)n(Cc3ccccc3)c2C)C(=O)N1CCOC` stands “inactive”; under `C/N=C1/NC(=O)/C(=C/c2ccn(Cc3ccccc3)c2)S1`, “inactive”.
In test [9], `C/N=C1\S/C(=C\c2cc(C)n(-c3ccc(F)c(C#N)c3)c2C)C(=O)N1C` registered an Efficacy of 50%. Moreover, the EC50 in test [1] turned out to be 3200 nM.
With `C/N=C1\S/C(=C\c2cc(C)n(-c3cccc(F)c3)c2C)C(=O)N1C`, the Efficacy in test [9] amounted to 60%. For the same compound, the EC50 in [1] worked out at 1600 nM.
For the compound `Cc1cc(/C=C2\S/C(=N\c3ccccc3)N(C)C2=O)c(C)n1-c1ccccc1F`, the EC50 in [1] stood at 2800 nM.
In test [9], `C/N=C1\S/C(=C\c2cc(C)n(-c3ncccc3F)c2C)C(=O)N1C` yielded an Efficacy of 70%. Moreover, the EC50 in [1] turned out to be 3100 nM.
Turning to `CC/N=C1\S/C(=C\c2cc(C)n(-c3ccc(F)cc3F)c2C)C(=O)N1CC`, the result in test [3] and in [5] was inactive. Besides, the EC50 in test [1] was 104 nM; in test [7], 816 nM; in test [8] it was 6180 nM.
`Cc1cc(/C=C2\S/C(=N\CCO)N(C)C2=O)c(C)n1Cc1ccccc1`: the EC50 in test [1] is 396 nM.
For `Cc1cc(/C=C2\SC(=N)NC2=O)c(C)n1-c1ccccc1F`, the outcome in test [6] was inactive.
Compound `Cc1cc(/C=C2\S/C(=N\c3ccccn3)NC2=O)c(C)n1-c1ccccc1F` yielded an Efficacy in test [9] of 70%. Also, the EC50 in test [1] amounted to 2100 nM.
On to `COCC/N=C1\S/C(=C\c2cc(C)n(-c3ccc(F)cc3F)c2C)C(=O)N1C`, for which the result in test [3], in test [4] and in test [5] was inactive. In addition, the concentration giving a half-maximal response (EC50) in test [1] is 56 nM; in test [8] it was 2100 nM. Moreover, in the test with UOS2 [10], the Ratio EC50 was determined as 37.
For `C/N=C1/NC(=O)/C(=C/c2cnn(-c3ccc(F)cc3)c2C)S1`, in test [1], the EC50 is 3800 nM.
For the compound `C/N=C1\O/C(=C\c2cc(C)n(-c3ccccc3F)c2C)C(=O)N1C`, in test [6], the result was inactive.
`C/N=C1\S/C(=C\c2cc(C)n(-c3ccccc3F)c2C)C(=O)N1C`: the outcome in [3] and in test [5] was inactive. In addition, the EC50 came to 205 nM in test [1], 819 nM in [7] and 721 nM in test [8]. In [11], the Efficacy is 70%.
`C/N=C1\S/C(=C\c2cc(C)n(-c3ccccc3C)c2C)C(=O)N1C`: the outcome in test [6] was inactive.
As for `CC/N=C1\S/C(=C\c2cc(C)n(Cc3c(F)cccc3F)c2C)C(=O)N1CC`, the result in [3] and in [5] was inactive. Moreover, the results for the EC50 in test [1], in test [7] and in test [8] were 314 nM, 18 nM and 22 nM, respectively.
On to `C/N=C1\S/C(=C\c2cc(C)n(-c3ccc(F)cc3F)c2C)C(=O)N1C`, for which the Ratio EC50 with UOS2 [12] came out at 21. Moreover, the result in test [2], in [3] and in [5] was inactive. In addition, the results for the EC50 in test [1] and in test [7] were 210 nM and 4470 nM, respectively.
For the compound `C/N=C1\S/C(=C\c2cc(C)n(-c3ccc(OC)c(C(F)(F)F)c3)c2C)C(=O)N1C`, the result in [6] was inactive.
In test [9], `C/N=C1\S/C(=C\c2cc(C)n(CCc3ccccc3)c2C)C(=O)N1C` showed an Efficacy of 20%. In addition, the EC50 in test [1] was 660 nM.
`CCCCCCCCc1ccc2nc([C@@H](N)COP(=O)(O)O)[nH]c2c1`: the values for the EC50 in test [1], in test [7] and in test [8] were 36 nM, 21 nM and 8.2 nM, respectively.
The compound `CCCCCCCCc1ccc([C@H]2C[C@H](COP(=O)(O)O)N[C@@H]2CO)cc1` registered an EC50 in [7] above 10000 nM.
Consider `C/N=C1\S/C(=C\c2cc(C)n(-c3ccccc3Cl)c2C)C(=O)N1C`, for which the outcome in test [6] was inactive.
For the compound `C/N=C1/NC(=O)/C(=C/c2cnn(-c3ccccc3F)c2)S1`, the result in [6] was inactive.
`Cc1cc(/C=C2\S/C(=N\C(C)C)N(C(C)C)C2=O)c(C)n1-c1ccccc1F`: the outcome in test [6] was inactive.
In the case of `C/N=C1\S/C(=C\c2cc(C)n(Cc3ccc(F)cc3F)c2C)C(=O)N1C`, the outcome in test [3] and in test [5] was inactive. In addition, the results for the EC50 in test [1], in test [7] and in test [8] were 147 nM, 287 nM and 37 nM, respectively.
Regarding `C/N=C1\S/C(=C\c2cc(C)n(-c3ccc(Cl)cc3F)c2C)C(=O)N1C`, the outcome in [3] and in test [5] was inactive. The 50% effective concentration (EC50) in test [1] came out at 440 nM; in test [7], 3010 nM; in test [8], 3400 nM.
Consider `C/N=C1\S/C(=C\c2cc(C)n(-c3ccc(C)cc3C)c2C)C(=O)N1C`, for which, in [6], the result was inactive.
On to `C/N=C1/NC(=O)/C(=C/c2ccn(-c3ccccc3F)c2)S1`, for which the result in test [6] was inactive.
Turning to `CC/N=C1\S/C(=C\c2cc(C)n(-c3cccc4ccccc34)c2C)C(=O)N1CC`, the result in test [6] was inactive.
Regarding `C/N=C1\S/C(=C\c2cc(C)n(-c3ccccc3Br)c2C)C(=O)N1C`, in test [6], the outcome was inactive.
In the case of `N[C@H](CNC(=O)c1cc2c(-c3ccccc3Cc3ccccc3)cccc2[nH]1)C(=O)O`, the EC50 is 10 nM in test [1], above 10000 nM in test [7] and 2400 nM in test [8].
Regarding `C/N=C1/NC(=O)/C(=C/c2cc(C)n(-c3ccc(F)cc3F)c2C)S1`, in test [1], the concentration giving a half-maximal response (EC50) was determined as 1000 nM.
For `CC/N=C1\S/C(=C\c2cc(C)n(CCc3ccccc3)c2C)C(=O)N1CC`, in test [6], the result was inactive.
Same read-out and setting: the value for `CCC/N=C1\NC(=O)/C(=C/c2cc(C)n(-c3ccccc3F)c2C)S1` was “inactive”; that for `C/N=C1\S/C(=C\c2cc(C)n(-c3cc(C)ccc3OC)c2C)C(=O)N1C` was “inactive”; that for `CCCC/N=C1\S/C(=C\c2cc(C)n(-c3ccccc3F)c2C)C(=O)N1CCCC` was “inactive”.
`C/N=C1/NC(=O)/C(=C/c2c(C)n(Cc3ccccc3)c3ccccc23)S1`: in test [6], the outcome was inactive.
On to `CC/N=C1\S/C(=C\c2cc(C)n(-c3ncccc3F)c2C)C(=O)N1CC`, for which the Efficacy in test [9] was determined as 70%. The EC50 in test [1] came to 5400 nM.
Turning to `Cc1cc(/C=C2\SC(=O)N(C)C2=O)c(C)n1-c1ccccc1F`, the result in test [6] was inactive.
Take `C/N=C1/NC(=O)/C(=C/c2c(C)nn(-c3ccc(F)cc3)c2C)S1`: the result in test [6] was inactive.
As to `Cc1cc(/C=C2\S/C(=N\CCO)N(C)C2=O)c(C)n1-c1ccccc1F`, the result in test [3] and in [5] was inactive. In addition, the Efficacy in test [13] is 20%; in test [14] it was 60%. Also, in [1], the EC50 was found to be 306 nM.
For `C/N=C1/NC(=O)/C(=C/c2cnn(-c3ccc(F)cc3F)c2)S1`, the outcome in test [6] was inactive.

One may read the EC50 as the concentration giving half of the maximal effect.

These data come from ChEMBL document CHEMBL1909558, “Discovery, synthesis and SAR analysis of novel selective small molecule S1P4-R agonists based on a (2Z,5Z)-5-((pyrrol-3-yl)methylene)-3-alkyl-2-(alkylimino)thiazolidin-4-one chemotype” (Bioorg Med Chem Lett, 2011).
